Test results from patent US20240415845A1, “Compositions of Iboga Alkaloids and Methods of Treatment” (priority 2022, published 2024).

Key:
Format in all cases: in vivo, human
[1] = system: male veterans with a history of TBI; assay: Pseudo-continuous arterial spin labeling (pcASL) MRI of cerebral blood flow; conditions: baseline, first post-treatment scan and one month post-treatment; paired t-test; 18 subjects
Description: Arterial spin labeling (ASL) MR was used to measure cerebral blood flow in some of the subjects of the subjects enrolled in the study of Example 1. As described in Example 3, pseudo-continuous ASL (pcASL) was performed on the subject at baseline, about 1 week after treatment, and one-month after treatment. […] A first metric of interest was change in net quantity (mL/100 g tissue/min) of blood entering different regions of the brain. Images of the left posterior orbital gyrus, left anterior insula, left and right cerebral white matter at baseline and 1-week post treatment (images not shown) were analyzed and compared. […] A paired t-test across 3 time points—baseline (pre-treatment), 1 week post-treatment, and 1 month post-treatment—was employed.
Arterial spin labeling (ASL) MRW was used to measure cerebral blood flow.
A first metric of interest was change in net quantity (mL/100 g tissue/min) of blood entering different regions of the brain. Images of the left posterior orbital gyrus, left anterior insula, left and right cerebral white matter at baseline and 1-2 days post treatment (images not shown) were analyzed and compared.
A paired t-test across 3 time points-baseline (pre-treatment), 1-2 days post-treatment, and one month post-treatment-was employed.

[2] = system: special operations veterans with combat and/or blast exposure; assay: Moral Injury Symptom Scale (MISS)
Description: A Moral Injury Symptom Scale (MISS) was also used to assess the subjects before and one month after treatment. Moral injury is when one acts in a manner or witnesses behaviors that go against an individual's values and moral beliefs. This may include betrayal by leadership or peers with adverse outcomes. Symptoms include guilt, remorse, shame, disgust, anger, inability to forgive oneself, engaging in self-sabotaging behaviors, such as feeling undeserving, affecting work and relationships, and questioning spirituality. The MISS is a multidimensional measure to assess the severity of moral injury symptoms. Possible score range is 45-450, with higher scores indicating more severe moral injury (Koenig et al., J. Relig Health, 57:249-265 (2018)).

[3] = system: special operations veterans with combat and/or blast exposure; assay: MRI-based predicted brain age (machine learning model); conditions: for brain age estimate: baseline 40.89 years; for Brain age, Cohen's d / Brain age, Mean Difference: N 24
Description: In another aspect, a method for slowing or reversing brain aging in a subject is provided. In an embodiment, the subject is a person a healthy individual or is a person with TBI or with TBI and PTSD or a person at risk of one or both of TBI and PTSD. The method comprises treating the subject with ibogaine, as described herein. Neuroimaging data can be used to predict chronological age in healthy individuals, using machine learning. Neuroimaging-derived age predictions have been explored in the context of different brain diseases (Cole, et al., NeuroImage, 163:115-124 (2017): Cole, et al., Trends in Neurosciences, 40(12):681 (2017))). By training models on healthy individuals, brain-based predictions of age can be made in independent clinical samples. If ‘brain-predicted age’ is greater than an individual's chronological age, this is thought to reflect some aberrant accumulation of age-related changes to the brain (Id.). […] A predictive model of normal ageing defined using machine learning in healthy individuals, based on magnetic resonance imaging-derived estimates of gray matter and white matter (Id.) was applied to the MRI images from the subjects enrolled in the study of Example 1. […] There was a significant reversal of brain age from baseline to one month after treatment. The mean decrease in brain age was 1.3 years (corrected p=0.03).
At baseline, the brain age estimate for the 24 subjects was 40.89 years. […] The average decrease in brain age from baseline one month after treatment was 1.4 years.

[4] = contrast 1 wk post − 1 mo. post
[5] = contrast immediate post (~1 wk) − baseline
[6] = one month after treatment, 24 subjects

Structure (SMILES): CCC1CC2CC3c4[nH]c5ccc(OC)cc5c4CCN(C2)C13 (centres unmarked) [ibogaine, Ibogaine]
- changes in absolute cerebral blood flow [1]: No significant changes
- subjects showing a reduction in moral injury score ([2]; FIG. 6B): 88%
- MISS effect size ([2]; one month after treatment vs baseline): 1.14
- average moral injury symptoms score (MISS) ([2]; one month after treatment, baseline about 220, score range 45-450): about 140
- Brain age, contrast Estimate ([3]; Baseline & 1 wk. vs 1 mo., weights .5-.5-1): 1.220 years
- Brain age, contrast Estimate ([3]; Baseline vs. 1 wk and 1 mo., weights 1-.5-.5): 0.892 years
- brain age estimate ([3]; about one week after treatment, 24 subjects): 40.52 years
- mean decrease in predicted brain age ([3]; baseline to one month after treatment, corrected p=0.03 (FIG. 19A)): 1.3 years
- Brain age, Cohen's d ([3]; contrast 1-mo. post − baseline): −0.6137
- Brain age, Mean Difference ([3]; contrast 1-mo. post − baseline): −1.408 Years
- Brain age, Cohen's d [3, 4]: −0.4729
- Brain age, Mean Difference [3, 4]: −1.031 Years
- Brain age, Cohen's d [3, 5]: −0.2114
- Brain age, Mean Difference [3, 5]: −0.3764 Years
- average decrease in brain age from baseline [3, 6]: 1.4 years
- brain age estimate [3, 6]: 39.48 years
- estimated brain age compared to accelerated intermittent theta burst stimulation (aiTBS) ([3]; one-month post treatment (FIG. 19D)): reducing in estimated brain age
